Measurements: article PMC4605401 (Journal of pharmaceutical and biomedical analysis, 2009)
One block for each compound: values may come before it.

What was measured:
[1] = target: T1, histamine 1 receptor (H1R) (Homo sapiens, UniProt P35367); conditions: cellular membrane binding studies; data not shown
[2] = target: T1, histamine 1 receptor (H1R); format: binding; conditions: histamine subtype selectivity; data not shown
[3] = target: P2Y1 receptor (Homo sapiens, UniProt P47900); assay: Frontal affinity chromatography, competitive displacement on CMAC; format: binding; conditions: CMAC(1321N1P2Y1); marker 1 nM [3H]-2-MeSADP; 1 μM mepyramine in mobile phase
P2Y1 receptor (Homo sapiens, UniProt P47900), sequence (P47900 whole entry): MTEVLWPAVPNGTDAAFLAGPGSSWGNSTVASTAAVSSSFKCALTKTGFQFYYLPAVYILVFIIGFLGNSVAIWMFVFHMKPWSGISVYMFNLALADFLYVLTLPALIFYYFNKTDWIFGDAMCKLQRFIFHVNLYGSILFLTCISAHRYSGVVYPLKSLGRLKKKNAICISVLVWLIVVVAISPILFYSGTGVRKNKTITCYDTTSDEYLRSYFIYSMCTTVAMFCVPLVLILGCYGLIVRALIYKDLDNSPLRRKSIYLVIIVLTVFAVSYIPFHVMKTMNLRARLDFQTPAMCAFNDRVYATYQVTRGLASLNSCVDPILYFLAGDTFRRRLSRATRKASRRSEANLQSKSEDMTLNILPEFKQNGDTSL

[4] = target: T1, histamine 1 receptor (H1R); assay: as above; format: binding; conditions: CMAC(1321N1P2Y1); marker 50 pM [3H]-mepyramine; 10 μM 2-MeSADP in mobile phase
[5] = system: P2Y1 receptor; assay: Frontal affinity chromatography on CMAC; format: binding, human

T1 sequence (P35367 whole entry): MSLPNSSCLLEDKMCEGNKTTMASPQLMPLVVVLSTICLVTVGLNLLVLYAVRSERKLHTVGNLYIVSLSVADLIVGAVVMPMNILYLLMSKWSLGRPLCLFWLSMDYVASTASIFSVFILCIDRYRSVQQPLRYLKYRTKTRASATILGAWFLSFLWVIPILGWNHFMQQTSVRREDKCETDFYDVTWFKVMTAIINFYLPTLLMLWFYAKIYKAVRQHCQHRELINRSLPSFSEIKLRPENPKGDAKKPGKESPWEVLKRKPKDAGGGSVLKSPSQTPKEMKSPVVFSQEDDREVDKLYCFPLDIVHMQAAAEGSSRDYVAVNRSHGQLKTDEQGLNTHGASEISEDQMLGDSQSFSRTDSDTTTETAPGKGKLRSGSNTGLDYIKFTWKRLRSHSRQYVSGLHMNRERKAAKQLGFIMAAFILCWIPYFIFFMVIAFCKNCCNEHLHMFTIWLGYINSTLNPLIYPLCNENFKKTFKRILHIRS

Compound: 4-methylhistamine
specific binding to 1321N1 cellular membranes [1]: did not specifically bind | specific retention on CMAC(1321N1) column [2]: No specific retention

effect on the breakthrough volume of 2-MeSADP [3]: no effect
Compound: COc1ccc(CN(CCN(C)C)c2ccccn2)cc1 [Mepyramine, mepyramine]

effect on the breakthrough volume of mepyramine [4]: no effect
Compound: CSc1nc(N)c2ncn([C@@H]3O[C@H](COP(=O)(O)OP(=O)(O)O)[C@@H](O)[C@H]3O)c2n1 [2-MeSADP]
CMAC(1321N1) Kd ([5]; P2Y1, non-transfected 1321N1 membranes): No binding | specific retention on CMAC(1321N1) column ([5]; [3H]-2-MeSADP added to the mobile phase): no specific retention
